Values of other authors in patent US7479481B2, “Treatment of ocular diseases and disorders using lantibiotic compositions” (Molichem Medicines, Inc., priority 2004, dated 2009).

Test system: clatharin-coated vesicle acidification
Settings: clatharin-coated vesicles; Stone et al., J. Biol. Chem. 259: 2701-2703 (1984)

Q: For duramycin, which “inhibition of the proton translocation facilitated by chloride translocation” value is on record?
A: Its value is “up to 50%”.
